EPA's ToxRefDB 2

Key:
rat [1] = conditions: Combined chronic toxicity/carcinogenicity, other, Oral, Feed, dose end: 24 month, group: systemic
rat [2] = conditions: Subchronic oral toxicity in rodents, sprague dawley, Feed, dose end: 3 month, group: systemic
mouse = conditions: Carcinogenicity, other, Oral, Feed, dose end: 18 month, group: systemic
dog [3] = conditions: Chronic toxicity, beagle, Oral, Feed, dose end: 52 week, group: systemic
rabbit = conditions: Prenatal developmental toxicity study, himalayan, Oral, Gavage/Intubation, dose end: 19 GD
dog [4] = conditions: Subchronic oral toxicity in nonrodent, beagle, Feed, dose end: 90 day, group: systemic, systemic / clinical chemistry / albumin / albumin + systemic / clinical chemistry / albumin-globulin ratio / albumin-globulin ratio + …
rat [5] = conditions: Multigenerational reproductive toxicity study, other, Oral, Feed, dose end: 2 generation
rat [6] = conditions: Prenatal developmental toxicity study, sprague-dawley, Oral, Gavage/Intubation, dose end: 15 GD
[7] = systemic / pathology microscopic / kidney / atrophy
[8] = systemic / pathology microscopic / kidney / atrophy + systemic / in life observation / body weight / body weight + systemic / in life …
[9] = systemic / in life observation / body weight / body weight + systemic / in life observation / body weight / body weight gain
[10] = systemic / in life observation / body weight / body weight + systemic / in life observation / body weight / body weight gain + systemic / …
[11] = systemic / in life observation / body weight / body weight + systemic / in life observation / body weight / body weight gain + systemic / in…
[12] = systemic / pathology gross / lung / foci + systemic / in life observation / body weight / body weight gain + systemic / pathology …
[13] = group: developmental, developmental / developmental malformation / heart / misshapen
[14] = group: maternal, systemic / in life observation / clinical signs / hemorrhagic perineal discharge + systemic / in life observation / mortality / mortality
[15] = group: maternal, systemic / in life observation / clinical signs / hemorrhagic perineal discharge + systemic / in life observation / mortality / mortality + …
[16] = group: offspring, systemic / in life observation / body weight / offspring (pup) weight + systemic / organ weight / spleen / absolute + systemic / organ …
[17] = group: parental, systemic / in life observation / body weight / body weight + systemic / in life observation / body weight / body weight gain + systemic / in…
[18] = group: developmental, developmental / developmental malformation / bone / unossified + developmental / developmental malformation / bone / [other]
[19] = group: developmental, developmental / developmental malformation / bone / unossified + developmental / developmental malformation / bone / [other] + developmental…
[20] = group: maternal, systemic / in life observation / body weight / body weight gain + systemic / in life observation / food consumption / food consumption

`COc1cc(OC)nc(NC(=O)[N-]S(=O)(=O)c2ncccc2OCC(F)(F)F)n1.[Na+]` [Trifloxysulfuron-sodium] gave an LEL (rat [1]; [7]) of 99.3 mg/kg/day, an LOAEL (rat [1]; [7]) of 99.3 mg/kg/day and an NEL (rat [1]; [8]) of 23.7 mg/kg/day. The NOAEL (rat [1]; [8]) was 23.7 mg/kg/day, the LEL (rat [2]; systemic / clinical chemistry / cytochrome p450, nos / cytochrome p450, nos) was 239 mg/kg/day and the LOAEL (rat [2]; [9]) was 1050 mg/kg/day. For the same molecule, the NEL (rat [2]; [10]) was 65.7 mg/kg/day, the NOAEL (rat [2]; [10]) was 507 mg/kg/day and the LEL (mouse; [9]) was 24.1 mg/kg/day. The LOAEL (mouse; [9]) was 24.1 mg/kg/day, the NEL (mouse; [11]) was 5.76 mg/kg/day and the NOAEL (mouse; [11]) was 5.76 mg/kg/day. For the same molecule, the LEL (dog [3]; systemic / pathology gross / lung / foci) was 15 mg/kg/day, the NEL (dog [3]; [12]) was 6.51 mg/kg/day and the NOAEL (dog [3]; [12]) was 51.1 mg/kg/day. For the same molecule, the LOAEL (dog [3]; systemic / pathology gross / lung / foci + systemic / pathology microscopic / lung / thickened) was 123 mg/kg/day, the LEL (rabbit; [13]) was 100 mg/kg/day and the LOAEL (rabbit; [13]) was 100 mg/kg/day. The NEL (rabbit; [13]) was 50 mg/kg/day, the NOAEL (rabbit; [13]) was 50 mg/kg/day and the LEL (rabbit; [14]) was 250 mg/kg/day. It also gave an LOAEL (rabbit; [14]) of 250 mg/kg/day, an NEL (rabbit; [15]) of 100 mg/kg/day and an NOAEL (rabbit; [15]) of 100 mg/kg/day. For the same molecule, the LEL (dog [4]) was 164 mg/kg/day, the LOAEL (dog [4]) was 164 mg/kg/day and the NEL (dog [4]) was 19.8 mg/kg/day. The NOAEL (dog [4]) was 19.8 mg/kg/day, the LEL (rat [5]; [16]) was 631 mg/kg/day and the LOAEL (rat [5]; [16]) was 631 mg/kg/day. The NEL (rat [5]; [16]) was 78.8 mg/kg/day, the NOAEL (rat [5]; [16]) was 78.8 mg/kg/day and the LEL (rat [5]; [17]) was 631 mg/kg/day. The LOAEL (rat [5]; [17]) was 631 mg/kg/day, the NEL (rat [5]; [17]) was 78.8 mg/kg/day and the NOAEL (rat [5]; [17]) was 78.8 mg/kg/day. For the same molecule, the LEL (rat [6]; [18]) was 30 mg/kg/day, the NEL (rat [6]; [18]) was under 30 mg/kg/day and the LOAEL (rat [6]; [19]) was 1000 mg/kg/day. It also gave an NOAEL (rat [6]; [19]) of 300 mg/kg/day, an LOAEL (rat [6]; [20]) of 1000 mg/kg/day and an NEL (rat [6]; [20]) of 30 mg/kg/day. For the same molecule, the NOAEL (rat [6]; [20]) was 300 mg/kg/day and the LEL (rat [6]; group: maternal, systemic / in life observation / food consumption / food consumption) was 300 mg/kg/day.
